Bridge positions count the residues as written; N and C are the ends. Square brackets hold non-standard residues; d marks the D form. Peptide text beside a SMILES is read from it. * marks the point of attachment. Octanoyl = CCCCCCCC(=O)*; Dab = NCC[C@H](N)C(=O)O; Abu = CC[C@H](N)C(=O)O
Legend:
[1] = system: A. baumannii ATCC 19606; experiment: Growth inhibition around wells on LB plates containing rifampin (sensitization); format: cell-based, Acinetobacter baumannii; conditions: well containing 4 µg
[2] = system: P. vulgaris ATCC13315; experiment: MIC by E-strips on Mueller-Hinton agar with or without NAB7061 (4 µg/ml); format: cell-based
Method: (§1) MICs were determined by using E-strips (Biodisk Ltd., Solna, Sweden) according to the manufacturer's instructions.
(§2) The strains originated from ATCC (11 strains), CCUG (11 strains), and NCTC (The National Collection of Type Cultures, Colindale, U.K.; 2 strains). Eight strains (the F-strains) were purchased from Mobidiag Ltd., Helsinki, Finland.

[3] = system: S. maltophilia ATCC17444; experiment: as above; format: cell-based
Method: as §1, §2

[4] = system: Ps. aeruginosa ATCC 27853; experiment: Growth inhibition around wells on LB plates containing rifampin (sensitization); format: cell-based, Pseudomonas aeruginosa; conditions: well containing 4 µg
[5] = system: S. marcescens ATCC8100; experiment: MIC by E-strips on Mueller-Hinton agar with or without NAB7061 (4 µg/ml); format: cell-based, Serratia marcescens
Method: as §1, §2

[6] = system: Ac. baumannii ATCC19606; experiment: as above; format: cell-based, Acinetobacter baumannii
Method: as §1, §2

[7] = system: Ac. baumannii F263; experiment: as above; format: cell-based, Acinetobacter baumannii
Method: as §1, §2

[8] = system: E. coli IH3080 (O18:K1); experiment: Synergistic bactericidal activity with guinea pig serum (complement); format: cell-based, Escherichia coli; conditions: none (PBS)
[9] = system: E. coli CCUG41432; experiment: MIC by E-strips on Mueller-Hinton agar with or without NAB7061 (4 µg/ml); format: cell-based, Escherichia coli
Method: as §1, §2

[10] = system: E. coli CCUG41422; experiment: as above; format: cell-based, Escherichia coli
Method: as §1, §2

[11] = system: E. coli CCUG41425; experiment: as above; format: cell-based, Escherichia coli
Method: as §1, §2

[12] = system: E. coli CCUG41424; experiment: as above; format: cell-based, Escherichia coli
Method: as §1, §2

[13] = system: K. pneumoniae F145; experiment: as above; format: cell-based, Klebsiella pneumoniae
Method: as §1, §2

[14] = system: K. pneumoniae F136; experiment: as above; format: cell-based, Klebsiella pneumoniae
Method: as §1, §2

[15] = system: K. pneumoniae CCUG45421; experiment: as above; format: cell-based, Klebsiella pneumoniae
Method: as §1, §2

[16] = system: K. pneumoniae F144; experiment: as above; format: cell-based, Klebsiella pneumoniae
Method: as §1, §2

[17] = system: K. oxytoca ATCC 13182; experiment: Growth inhibition around wells on LB agar plates; format: cell-based, Klebsiella oxytoca; conditions: growth inhibition area around well
Method: (§3) From an overnight-grown culture of IH3080 on LB agar, a suspension of approx. 10^8 cells/ml was prepared in 0.9% NaCl. Aliquots of this suspension were then pipetted on the agar plates and the plates were gently shaken to spread the suspension evenly on the entire surface of the plate. Thereafter, the unabsorbed part of the suspension was removed by using a Pasteur pipette. After the surface had dried, small wells (diameter, 2 mm) were drilled on the plates (five wells per plate) by using a sterile sharp-edged narrow metal tube, single-use pipette tip, and vacuum suction. Samples (4 µl and 10 µl) of the peptide solution in 0.9% NaCl (at concentrations of 1 µg/ml and 0.1 µg/ml) were then pipetted to the wells and the sample fluids were allowed to absorb. Controls included 0.9% NaCl solution without the compound to be tested. The plates were then incubated for 18 h at 37°C whereafter the diameters of growth inhibition zones around each well were measured; the diameter of the well itself was […]. Finally, the diameters were converted to surface areas of growth inhibition (in square mm).
(§4) The susceptibility of eleven Gram-negative bacterial strains (nine different species) to NAB734 and polymyxin B was compared by using the susceptibility determination method described in Example 2. […]

[18] = system: K. pneumoniae CCUG45421; experiment: Growth inhibition around wells on LB agar plates; format: cell-based, Klebsiella pneumoniae; conditions: growth inhibition area around well
Method: as §3
The susceptibility of eleven Gram-negative bacterial strains (nine different species) to NAB734 and polymyxin B was compared by using the susceptibility determination method described in Example 2. The strains included those belonging to the species of Serratia marcescens and Proteus mirabilis, both species generally known to be resistant to polymyxin. Furthermore, the susceptibility determination was also performed by using the Gram-positive bacterium, Staphylococcus aureus, also generally known to be polymyxin-resistant. Ten of the strains originated from ATCC (American Type Culture Collection, Manassas, VA, U.S.A.), and one from CCUG (Culture Collection of University of Gothenburg, Sweden). The source of E. coli IH3080 has been described in Example 2. Polymyxin B sulfate was from Sigma-Aldrich (St. Louis, MO, USA).

[19] = system: E. coli ATCC25922; experiment: Growth inhibition around wells on LB agar plates; format: cell-based, Escherichia coli; conditions: growth inhibition area around well
Method: as §3, §4

[20] = system: E. cloacae ATCC23355; experiment: Growth inhibition around wells on LB agar plates; format: cell-based, Enterobacter cloacae; conditions: growth inhibition area around well
Method: as §3, §4

CCCCCCCC(=O)N[C@H](C(=O)N[C@@H](CC)C(=O)N[C@H]1CCNC(=O)[C@H]([C@@H](C)O)NC(=O)[C@H](CCN)NC(=O)[C@H](CCN)NC(=O)[C@H](CC(C)C)NC(=O)[C@@H](Cc2ccccc2)NC(=O)[C@H](CCN)NC1=O)[C@@H](C)O [NAB 7061, OA-Thr-Abu-cy[Dab-Dab-DPhe-Leu-Dab-Dab-Thr-]] (Octanoyl-T[Abu][Dab][Dab][dF]L[Dab][Dab]T; lactam 3-C)
Antibacterial activity, rifampin 0 ([1]; no rifampin (control)): 0 square millimeters
Antibacterial activity, rifampin 0.1 ([1]; rifampin 0.1 µg/ml): 28 square millimeters
Antibacterial activity, rifampin 0.3 ([1]; rifampin 0.3 µg/ml): 50 square millimeters
MIC (µg/ml) of rifampin in the presence of 4 µg/ml of NAB 7061 [2]: 1-1,5 µg/ml
Sensitization factor to clarithromycin ([2]; 4 µg/ml of NAB 7061): <2
Sensitization factor to rifampin ([2]; 4 µg/ml of NAB 7061): <2
Antibacterial activity, rifampin 0 ([4]; no rifampin (control)): 0 square millimeters
Antibacterial activity, rifampin 0.1 ([4]; rifampin 0.1 µg/ml): 0 square millimeters
Antibacterial activity, rifampin 0.3 ([4]; rifampin 0.3 µg/ml): 0 square millimeters
Sensitization factor to clarithromycin ([5]; 4 µg/ml of NAB 7061): <2
Sensitization factor to rifampin ([5]; 4 µg/ml of NAB 7061): <2
% survival after 2-hour treatment at 37°C ([8]; NAB7061 1 µg/ml): 97%
% survival after 2-hour treatment at 37°C ([8]; NAB7061 2 µg/ml): 97%
% survival after 2-hour treatment at 37°C ([8]; NAB7061 4 µg/ml): 79%

Polymyxin B
Antibacterial activity 4 µg ([17]; 4 µg): 79 square millimeters
Antibacterial activity 10 µg ([17]; 10 µg): 104 square millimeters
Antibacterial activity 4 µg ([18]; 4 µg): 95 square millimeters
Antibacterial activity 10 µg ([18]; 10 µg): 133 square millimeters
Antibacterial activity 4 µg ([19]; 4 µg): 95 square millimeters
Antibacterial activity 10 µg ([19]; 10 µg): 133 square millimeters
Antibacterial activity 4 µg ([20]; 4 µg): 95 square millimeters
Antibacterial activity 10 µg ([20]; 10 µg): 143 square millimeters
